Experimental data taken from patent publication US7727736B2, “Soluble phospholipids for use in clotting factor assays” (The University of North Carolina at Chapel Hill, priority 2003, dated 2010).

Tests used:
[1] = CMC of C6PS using ANS as fluorescent probe in the presence of factor IXa; format: physicochemical; settings: 200 nM factor IXa, 5 mM calcium
[2] = target: T1, factor Xa binding to factor Va2 (Homo sapiens, UniProt P00742+P12259); test: Prothrombinase assembly monitored by initial rate of thrombin formation (DAPA fluorescence, stopped flow), FVa2; format: biochemical; settings: in presence of 400 μM C6PS
T1 construct: Human prothrombin and factor Xa; tissue Hematologic Technologies Inc. (factor Xa only); factor Xa purchased
T1 sequence (P00742 41-179 limits assumed): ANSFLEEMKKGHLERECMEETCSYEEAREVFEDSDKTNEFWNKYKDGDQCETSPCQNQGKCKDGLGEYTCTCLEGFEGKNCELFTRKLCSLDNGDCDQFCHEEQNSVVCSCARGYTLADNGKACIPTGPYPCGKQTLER
T1 sequence (P00742 235-488 limits assumed): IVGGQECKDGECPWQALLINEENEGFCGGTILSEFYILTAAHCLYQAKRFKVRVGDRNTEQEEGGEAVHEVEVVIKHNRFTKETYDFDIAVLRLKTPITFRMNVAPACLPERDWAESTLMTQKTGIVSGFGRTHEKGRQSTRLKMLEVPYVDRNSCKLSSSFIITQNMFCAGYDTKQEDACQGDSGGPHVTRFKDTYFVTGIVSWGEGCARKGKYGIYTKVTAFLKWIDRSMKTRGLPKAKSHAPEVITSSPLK
T1 sequence (P12259 29-737 limits assumed): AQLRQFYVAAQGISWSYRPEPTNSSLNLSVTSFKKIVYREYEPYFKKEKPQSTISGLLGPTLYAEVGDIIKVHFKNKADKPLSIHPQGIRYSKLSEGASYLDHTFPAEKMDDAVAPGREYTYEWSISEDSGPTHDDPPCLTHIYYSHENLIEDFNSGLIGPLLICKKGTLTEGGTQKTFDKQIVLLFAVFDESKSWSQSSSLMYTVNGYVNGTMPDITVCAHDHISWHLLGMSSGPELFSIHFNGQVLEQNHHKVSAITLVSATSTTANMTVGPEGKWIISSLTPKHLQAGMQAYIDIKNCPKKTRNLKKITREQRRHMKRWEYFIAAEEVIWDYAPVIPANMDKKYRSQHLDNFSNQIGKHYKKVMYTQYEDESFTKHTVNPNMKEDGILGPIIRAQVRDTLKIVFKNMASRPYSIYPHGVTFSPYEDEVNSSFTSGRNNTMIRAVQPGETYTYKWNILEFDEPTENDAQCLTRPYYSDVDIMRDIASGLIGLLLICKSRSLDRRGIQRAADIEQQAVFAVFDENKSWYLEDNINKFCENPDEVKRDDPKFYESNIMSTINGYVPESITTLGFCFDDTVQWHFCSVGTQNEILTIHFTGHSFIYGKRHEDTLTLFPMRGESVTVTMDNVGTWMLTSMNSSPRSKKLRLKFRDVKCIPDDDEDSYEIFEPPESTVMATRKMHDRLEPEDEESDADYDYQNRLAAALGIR
T1 sequence (P12259 1574-2224 limits assumed): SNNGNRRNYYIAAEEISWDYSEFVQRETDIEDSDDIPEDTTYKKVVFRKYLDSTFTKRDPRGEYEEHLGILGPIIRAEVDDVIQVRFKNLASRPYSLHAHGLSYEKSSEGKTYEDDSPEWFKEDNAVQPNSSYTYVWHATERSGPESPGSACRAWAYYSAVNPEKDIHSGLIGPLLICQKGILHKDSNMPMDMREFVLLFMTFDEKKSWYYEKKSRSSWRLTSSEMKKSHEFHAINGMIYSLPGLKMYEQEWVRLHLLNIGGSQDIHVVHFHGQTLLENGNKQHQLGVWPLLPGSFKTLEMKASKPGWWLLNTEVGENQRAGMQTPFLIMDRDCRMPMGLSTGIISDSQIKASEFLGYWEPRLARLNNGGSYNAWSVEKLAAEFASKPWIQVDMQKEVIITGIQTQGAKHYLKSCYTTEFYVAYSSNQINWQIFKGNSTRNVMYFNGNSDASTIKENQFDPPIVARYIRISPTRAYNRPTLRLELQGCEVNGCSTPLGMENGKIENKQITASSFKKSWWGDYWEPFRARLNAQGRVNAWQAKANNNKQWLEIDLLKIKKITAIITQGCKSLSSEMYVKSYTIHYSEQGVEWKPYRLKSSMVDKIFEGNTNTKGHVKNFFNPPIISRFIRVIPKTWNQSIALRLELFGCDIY
Description: The initial rate of thrombin formation was monitored by DAPA fluorescence. Stopped flow fluorescence measurements were performed at 37° C. with final mixing chamber concentrations of 1 μM prothrombin, 5 μM DAPA, 1 nM factor Xa, 400 μM C6PS and various concentrations of factor Va2 (Panel A) or Va1 (Panel B) in 50 mM Tris-HCl (pH 7.5), 150 mM NaCl, 5 mM CaCl2. The initial rates were fit to a single binding site model as described herein to determine the Kd^eff of factor Xa binding to factor Va2 in presence of 400 μM C6PS (2.4±0.3 nM). […] The abrupt appearance of aggregates at 700 μM C6PS defines the critical micelle concentration under these experimental conditions.
Fluorescence Stopped-Flow Measurements. The rates of thrombin formation from either MzIIa or Pre2 (with equimolar fragment 1.2), or of thrombin plus MzIIa formation from human prothrombin, were estimated from the time-dependent fluorescence change of DAPA bound to the activation products. […] The calculation of rates from measurements of initial fluorescence intensity (F0) and intensity at the completion of the reaction (F∞) is well-established (Nesheim and Mann (1983) supra; Wu, et al. (2002) supra).
Initial rates of prothrombin activation by FXa as monitored by DAPA fluorescence are shown in FIG. 2 as a function of added FVa2 (Panel A) and FVa1 (Panel B) in the presence of 400 μM C6PS. […]

factor IXa = target: T2, factor IXa (Homo sapiens, UniProt P00740); test: Binding of C6PS to Factor IXa detected by intrinsic fluorescence; settings: 0.20 μM factor IXa, 5 mM calcium, 22° C., single binding site model; read-out: stoichiometric Kd of C6PS binding to factor IXa
T2 construct: intrinsic tryptophan fluorescence of factor IXa
T2 sequence (P00740 47-191 limits assumed): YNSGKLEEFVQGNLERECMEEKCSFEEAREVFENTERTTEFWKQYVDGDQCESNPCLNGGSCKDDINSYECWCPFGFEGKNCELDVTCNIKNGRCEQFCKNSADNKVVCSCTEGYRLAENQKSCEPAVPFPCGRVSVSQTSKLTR
T2 sequence (P00740 227-461 limits assumed): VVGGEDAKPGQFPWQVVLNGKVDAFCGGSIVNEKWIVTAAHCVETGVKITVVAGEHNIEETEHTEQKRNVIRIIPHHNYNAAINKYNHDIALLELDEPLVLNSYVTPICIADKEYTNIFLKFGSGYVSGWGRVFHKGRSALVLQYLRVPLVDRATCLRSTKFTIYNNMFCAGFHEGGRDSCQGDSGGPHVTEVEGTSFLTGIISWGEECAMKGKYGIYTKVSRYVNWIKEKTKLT
Description: Integrated intrinsic fluorescence of 0.20 μM factor IXa in 50 mM Tris, 150 mM NaCl, 5 mM CaCl2, and 0.6% PEG, pH 7.5 was measured as a function of C6PS concentration at 22° C. to follow C6PS binding.

factor VIIIa-IXa complex = target: T3, factor VIIIa-IXa complex (Homo sapiens, UniProt P00451+P00740); test: Activation of factor X by factor IXa and factor VIIIa; format: biochemical; settings: in the presence of C6PS
T3 construct: 2.5 nM factor IXa and 10 nM factor VIIIa
T3 sequence (P00740 47-191 limits assumed): as the sequence (P00740 47-191 limits assumed) above
T3 sequence (P00740 227-461 limits assumed): as the sequence (P00740 227-461 limits assumed) above
T3 sequence (P00451 20-391 limits assumed): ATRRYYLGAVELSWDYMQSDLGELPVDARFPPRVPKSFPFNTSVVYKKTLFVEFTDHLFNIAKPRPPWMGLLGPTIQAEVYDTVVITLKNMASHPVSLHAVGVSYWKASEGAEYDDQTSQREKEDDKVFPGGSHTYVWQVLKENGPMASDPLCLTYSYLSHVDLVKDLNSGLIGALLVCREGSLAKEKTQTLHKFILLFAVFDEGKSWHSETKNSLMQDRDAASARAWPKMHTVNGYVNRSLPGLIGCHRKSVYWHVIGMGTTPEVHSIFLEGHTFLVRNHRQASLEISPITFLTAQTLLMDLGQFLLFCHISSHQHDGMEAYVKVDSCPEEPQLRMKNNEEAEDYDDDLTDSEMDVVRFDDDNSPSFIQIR
T3 sequence (P00451 392-759 limits assumed): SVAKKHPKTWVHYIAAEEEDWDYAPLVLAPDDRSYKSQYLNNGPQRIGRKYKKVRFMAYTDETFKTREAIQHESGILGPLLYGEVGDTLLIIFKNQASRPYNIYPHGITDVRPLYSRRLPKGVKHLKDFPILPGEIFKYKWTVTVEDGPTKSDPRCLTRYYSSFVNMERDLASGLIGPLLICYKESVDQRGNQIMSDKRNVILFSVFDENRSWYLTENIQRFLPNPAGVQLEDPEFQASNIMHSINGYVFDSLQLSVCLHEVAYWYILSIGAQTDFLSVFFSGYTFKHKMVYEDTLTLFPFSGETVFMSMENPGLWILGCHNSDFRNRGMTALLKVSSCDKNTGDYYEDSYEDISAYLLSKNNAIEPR
T3 sequence (P00451 1709-2351 limits assumed): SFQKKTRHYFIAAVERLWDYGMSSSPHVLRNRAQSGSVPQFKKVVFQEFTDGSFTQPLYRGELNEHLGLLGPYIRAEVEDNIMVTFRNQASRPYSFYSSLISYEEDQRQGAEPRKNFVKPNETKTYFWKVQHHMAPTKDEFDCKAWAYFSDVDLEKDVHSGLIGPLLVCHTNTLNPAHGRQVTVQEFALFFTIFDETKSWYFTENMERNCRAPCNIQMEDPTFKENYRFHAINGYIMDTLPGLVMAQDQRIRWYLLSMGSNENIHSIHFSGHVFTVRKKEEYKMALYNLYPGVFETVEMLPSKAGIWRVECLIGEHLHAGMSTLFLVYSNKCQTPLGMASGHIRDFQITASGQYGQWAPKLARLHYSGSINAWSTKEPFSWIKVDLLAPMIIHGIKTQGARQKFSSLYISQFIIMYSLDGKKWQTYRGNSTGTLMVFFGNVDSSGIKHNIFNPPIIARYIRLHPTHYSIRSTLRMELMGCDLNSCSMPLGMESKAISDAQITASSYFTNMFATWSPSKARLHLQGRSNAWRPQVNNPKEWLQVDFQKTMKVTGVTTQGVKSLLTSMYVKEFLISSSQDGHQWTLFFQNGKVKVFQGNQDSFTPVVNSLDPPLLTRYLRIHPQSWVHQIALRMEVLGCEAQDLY
Description: The rate of activation of factor X by 2.5 nM factor IXa and 10 nM factor VIIIa in the presence of 600 μM C6PS was monitored at different concentrations of factor X (FIG. 13). The KM for this reaction was 66 nM, which is similar to that obtained with 30% PS/PC membranes (45 nM) (Larson et al. (1996) J. Biol. Chem. 271 3869).

plasma = test: Activated partial thromboplastin time (aPTT) assay; format: biochemical
Description: Activated partial thromboplastin time assays were done using an optical detection method to determine clotting time. Two reaction mixtures were created. Mixture A had kaolin in concentrations ranging from 50 g/L to 500 g/L and either phospholipid vesicles (ranging from 0.67 to 240 μM) or C6PS (ranging from 5 μM to 5250 μM) in buffer of 20 mM HEPES (pH 7.4), 150 mM NaCl. Mixture B was 25 mM calcium chloride in a buffer of 20 mM HEPES (pH 7.4), 150 mM NaCl. Plasma, Mixture A, and Mixture B were all incubated at 37° C. for 3 minutes. Mixture A was added to plasma and incubated for 3 minutes at 37° C. Buffer B was added and the optical density was measured. Clotting was detected as an increase in absorbance.
As expected, lipid vesicles shortened the Kaolin induced clotting time in a dose-dependent fashion by as much as 100 seconds. C6PS gave a dose dependent shortening in the clotting time, but the largest decrease was 13 seconds. We speculated that the Kaolin might interfere with C6PS. Since the purpose of Kaolin is to activate the contact factors of coagulation (high molecular weight kininogen, factor XII, and factor XI), we substituted 30 nM activated factor XI for Kaolin in the assay described above.

FXa = FXa (Homo sapiens, UniProt P00742); settings: equilibrium dialysis; cited from earlier work
Sequence of FXa (P00742 41-179 limits assumed): as the sequence (P00742 41-179 limits assumed) above
Sequence of FXa (P00742 235-488 limits assumed): as the sequence (P00742 235-488 limits assumed) above

Compound: CCCCCC(=O)OC[C@H](COP(=O)(O)OC[C@H](N)C(=O)O)OC(=O)CCCCC [C6PS, 1,2-dicaproyl-sn-glycero-3-phospho-L-serine]
- CMC of C6PS [1]: 950 µM
- fold tighter FVa2 interaction with FXa than FVa1 [2]: at least 300 fold
- Kd (factor IXa): ~1.3 µM
- fold reduction of KM for factor X activation with the addition of VIIIa (factor VIIIa-IXa complex): 5 fold
- maximal shortening of clotting time (plasma; 30 nM activated factor XI substituted for Kaolin): 20 s
- largest shortening of the Kaolin induced clotting time (plasma; Kaolin as activator): 13 s
- stoichiometry of C6PS binding to FXa at saturation (FXa): 2
